Measured values from patent publication US7829529B2, “Use of factor VIIa or a tissue factor antagonist for regulating gene expression and cell migration or chemotaxis” (Novo Nordisk Health Care A/G, priority 1999, dated 2010).
“Also recorded” adds a separate entry of the source. Starred links: 1 amine or outer side, 2 acyl side, 3 side chain; linkers in the order of their positions; H or OH if unused. Positions of bridges follow the written chain, without caps; N, C: chain ends. Non-standard residues stand in square brackets, D forms with d. Residues, ends and D or L forms follow the SMILES beside them. Chains are numbered I, II in the order given. Actinocin(9to1) = Cc1c2oc3c(C)ccc(C(=O)[*:1])c3nc-2c(C(=O)[*:2])c(N)c1=O; NMeV = CN[C@H](C(=O)O)C(C)C; Sar = CNCC(=O)O

Tests used:
[1] = tested on: Human foreskin fibroblasts AG1523; test: Chemotaxis assay, leading front technique in modified Boyden chamber, towards PDGF-BB; format: cell-based; details: for effect on FVIIa/TF-mediated chemotactic response to PDGF-BB: 30 min pretreatment; for effect on enhanced migration response (hyperchemotaxis) transduced by FVIIa/TF: TAP 0.2-10 μM, Hirudin 5 U/ml; for effect on migration of fibroblasts in response to PDGF without FVIIa: no FVIIa present
Experimental: Fibroblasts expressing active TF (FIG. 1A and FIG. 1B) were incubated with 100 nM of FVIIa and seeded in the upper part of the modified Boyden chamber; while media containing 10% FBS and PDGF-BB at different concentrations were added below the 150 μm micropore filter. The migration of the cells under conditions where medium containing 10% FBS without PDGF-BB was added below the filter was used as a measure of random migration, and calculated as 100% migration. A significant migration response was recorded at a concentration of 0.01 ng/ml PDGF-BB in cells stimulated by FVIIa compared to 1 ng/ml PDGF-BB for cells not ligated with FVIIa, i.e. a 100-fold difference in concentration (FIG. 2). At 0.01-0.1 ng/ml PDGF-BB the migration response to FVIIa increased dose dependently, starting at 25 nM and with a maximal effect at 50-100 nM FVIIa (FIG. 3A-D). […] To test whether the proteolytically active FVIIa was mandatory for the hyperchemotactic response to PDGF-BB, fibroblasts were also incubated with 100 nM FFR-FVIIa and assayed in the Boyden chamber in the same way (FIG. 2).
An irrelevant monoclonal IgG antibody did neither prevent hyperchemotaxis induced by FVIIa nor the inhibition of the migration response induced by FFR-FVIIa (data not shown).
Chemotaxis assay. The migration response of fibroblasts was assayed by means of the leading front technique in a modified Boyden chamber, as previously described (Siegbahn, A., Hanimacher, A., Westermark, B., Heldin, C-H. Differential effects of the various isoforms of platelet-derived growth factor on chemotaxis of fibroblasts, monocytes, and granulocytes. J. Clin. Invest. 85, 916-920 (1990) and Nistér, M., Hammacher, A., Mellström, K., Siegbahn, A., Rönnstrand, L., Westermark, B., Heldin, C-H. A glioma-derived PDGF A chain homodimer has different functional activities from a PDGF AB heterodimer purified from human platelets. Cell 52, 791-799 (1988)). Micropore filters (pore size 8 μm) were coated with a solution of type-1 collagen at room temperature over night. The filters were air dried for 30 minutes immediately before use. Human foreskin fibroblasts AG1523, were grown to confluence in Eagle's MEM supplemented with 10% FBS. The cells were detached by trypsinization (2.5 mg/ml for 10 minutes at 37° C.) and suspended in Eagle's MEM with 10% FBS. The fibroblasts were incubated for 10 minutes with or without FVIIa or FFR-FVIIa before assay. One hundred microliters of the cell suspension (2×10^5 cells/ml) was added above the filter of the Boyden chamber. PDGF-BB was diluted in assay media (Eagle's MEM with 10% FBS) and added below the filter in the chamber. The cells were incubated for 6 hours at 37° C. in a humidified chamber containing 95% air/5% CO2. FVIIa or FFR-FVIIa were present during the entire experiment. The filters were then removed, fixed in ethanol, stained with Mayer's Hemalun, and mounted. Migration was measured as the distance of the two furthest migrating fibroblast nuclei of one high-power field (12.5×24) in focus. The migration distance in each filter was calculated as the mean of the readings of at least three different parts of the filter. Experiments were performed with two to four separate filters for each concentration of chemoattractant. For each set of experiments, the migration of fibroblasts toward the assay media served as control.
In cases when anti-TF monoclonal antibodies or inhibitors to coagulation factors, TAP and Hirudin, were used, cells were preincubated for 10 minutes with these agents, then with or without FVIIa or FFR-FVIIa before the chemotaxis assay was performed. Antibodies, TAP or Hirudin were also present during the entire chemotaxis experiment. In experiments where the effects on the migration response of different inhibitors, LY294002, U73122 or U73343, were tested, cells were preincubated for 30 minutes with the inhibitors at indicated concentrations, and the inhibitors were also present throughout the experiments.

[2] = tested on: Cyr61 mRNA in WI-38 cells; test: Northern blot analysis of Cyr61 expression; format: cell-based, human; details: for effect on VIIa-induced expression of Cyr61: 30 min preincubation, then VIIa 5 μg/ml 45 min, TAP 200 nM, actinomycin D and cycloheximide 10 μg/ml
Experimental: Northern Blot Analysis. Total RNA was prepared using TRIZOL reagent from quiescent monolayer of WI-38 cells that were exposed to VIIa and other materials as described in Results. Northern blot analysis was carried out using standard procedure. Briefly, 10 μg of total RNA was size fractionated by gel electrophoresis in 1% agarose/6% formaldehyde gels and transferred onto the nitrocellulose membrane by a capillary blot method. Northern blots were prehybridized at 42° C. with a solution containing 50% formamide, 5×SSC, 50 mM Tris.HCl, pH 7.5, 0.1% sodium pyrophosphate, 1% SDS, 1% polyvinylpyrrolidone, 1% Ficoll, 25 mM EDTA, 100 μg/ml denatured salmon sperm DNA and 1% BSA and hybridized with ^32P-labeled Cyr61 cDNA probe (106 cpm/ml). The hybridized membranes were exposed to either Dupont NEF or Fuji RX X-ray film. For quantification purposes, the membranes were exposed to phosphor screen for 1 to 4 h, and the exposed screens were analyzed in a Phosphorlmger (Molecular Dynamics) using “Image-quant” software. To obtain mean values, the units (counts) obtained from different experiments were normalized to an internal control (counts present in control-treated sample).
Confirmation of differential expression of Cyr61. To validate the data obtained in microarray, we have patiented the RNA samples from the control and VIIa-treated cells (the same RNA samples that have been used to prepare poly (A) RNA for probe generation in the microarray) to Northern blot analysis and probed with radiolabeled Cyr61 cDNA. […] However, the intensity of hybridization signal was much higher in RNA isolated from VIIa-treated cells (FIG. 11).
Kinetics of Vila-induced expression of Cyr61. To determine the kinetics of Cyr61 expression, quiescent fibroblasts were treated for varying time periods with 5 μg/ml VIIa. Total RNA was extracted and patiented to Northern blot analysis. […] The expression was peaked at about 45 min and thereafter declined to the base level in 2 to 3 h. Since it had been reported that expression of Cyr61 in mouse fibroblasts after stimulation with serum and growth factor was sustained for several hours (up to 8 to 10 h) before repression occurs, we have examined the effect of serum and PDGF on kinetics of Cyr61 expression in quiescent human fibroblasts, WI-38. […] Similar results obtained with serum-induced expression of Cyr61 (data not shown).
Factor VIIa-dose dependent induced expression of Cyr61. To determine dose-dependency of VIIa, quiescent fibroblasts were treated with varying doses FVIIa (0.1 to 5 μg/ml) for 45 min and then total RNA samples from the cells were patiented to Northern blot analysis.
Factor VIIa-catalytic activity is required for Cyr61 induction. To test whether VIIa catalytic activity is required for the induction of Cyr61, WI-38 cells were treated with VIIa and active-site inactivated FVIIa (FVIIai) for 45 min and the expression of Cyr61 was evaluated by Northern blot analysis. […] It is unlikely that VIIa-induced expression of Cyr61 in our experiments was the result of generation of down-stream coagulation factors, FXa and thrombin.
Involvement of transcriptional mechanism for the induction of Cyr61 mMRNA steady-state levels by VIIa. To investigate whether transcription is involved in VIIa-mediated increase in Cyr61 mRNA steady-state levels, quiescent WI-38 cells were incubated with actinomycin-D (10 μg/ml) for 30 min before the addition of VIIa for 45 min. […] This finding indicates a transcriptional mechanism for induction of Cyr61.
To investigate whether de novo protein synthesis is required for the induction of Cyr61 nRNA by VIIa, WI-38 cells were pretreated with the protein synthesis inhibitor cycloheximide before the cells were exposed to VIIa for 45 min.

[3] = tested on: PLC-γ1 in AG1518 fibroblasts; test: Assay for agonist-induced PLC-γ1 tyrosine phosphorylation; format: cell-based, human; details: 100 nM FVIIa or FFR-FVIIa one hour; PDGF-BB 2, 10 or 100 ng/ml 5 minutes
Experimental: In order to determine whether the PLC-γ1 isoform, which is activated by certain tyrosine kinase receptors, was responsible for the increased PLC activity induced by FVIIa/TF, tyrosine phosphorylation of PLC-γ1 was studied. Fibroblasts were incubated in the absence or presence of 100 nM FVIIa or FFR-FVIIa for one hour, followed by the stimulation with 0, 2, 10 or 100 ng/ml PDGF-BB. After 5 minutes of incubation, the cells were lysed and PLC-γ1 was immunoprecipitated, separated by SDS-PAGE and immunoblotted with antiphosphotyrosine antibodies. […] Thus, other PLC isoforms than PLC-γ1 are responsible for the increased PLC activity after FVIIa stimulation.
Assay for agonist-induced PLC-γ1 phosphorylation. Semi-confluent cultures of AG1518 were serum starved overnight (approx. 20 hours) in medium containing 0.1% FBS, and then incubated in the absence or presence of 100 nM FVIIa or FFR-FVIIa for one hour followed by incubation with 0, 2, 10 or 100 ng/ml PDGF-BB for 5 minutes at 37° C. […]

[4] = 100 nM FVIIa, 0.1 ng/ml PDGF-BB

Q: `COc1ccc2c(c1)CC[C@@H]1[C@@H]2CC[C@]2(C)[C@@H](NCCCCCCN3C(=O)C=CC3=O)CC[C@@H]12` [U73122] was tested. Which “concentration giving total inhibition of the hyperchemotactic response” value [1, 4] did it give?
A: 1 µM

Q: What about the “effect on FVIIa/TF-mediated chemotactic response to PDGF-BB” value [1, 4] of the same molecule?
A: inhibited the hyperchemotacic response to 0.1 ng/ml PDGF-BB in a dose-dependent way

Q: How did the “effect on FVIIa/TF-mediated chemotactic response to PDGF-BB” value [1, 4] turn out when `COc1ccc2c(c1)CC[C@@H]1[C@@H]2CC[C@]2(C)[C@@H](NCCCCCCN3C(=O)CCC3=O)CC[C@@H]12` [U73343] was run?
A: No effect on chemotaxis

Q: With `Cc1c2oc3c(C)ccc(C(=O)N[C@@H]4C(=O)N[C@H](C(C)C)C(=O)N5CCC[C@H]5C(=O)N(C)CC(=O)N(C)[C@@H](C(C)C)C(=O)O[C@@H]4C)c3nc-2c(C(=O)N[C@@H]2C(=O)N[C@H](C(C)C)C(=O)N3CCC[C@H]3C(=O)N(C)CC(=O)N(C)[C@@H](C(C)C)C(=O)O[C@@H]2C)c(N)c1=O` [actinomycin-D] (I: T[dV]P[Sar][NMeV] / II: T[dV]P[Sar][NMeV]; ester I:1-I:C, II:1-II:C; linker I:N-II:N via Actinocin(9to1)) as the molecule, how does the “effect on VIIa-induced expression of Cyr61” value (“effect … of Cyr61” below) [2] read?
A: inhibited the stimulator effect of VIIa

Q: With `C[C@@H]1C[C@@H]([C@H](O)CC2CC(=O)NC(=O)C2)C(=O)[C@@H](C)C1` [cycloheximide] as the molecule, how does the “effect … of Cyr61” value [2] read?
A: not blocked; also recorded: markedly increased the VIIa-induced Cyr61 mRNA steady-state levels

Q: Hirudin was tested. Which “effect on enhanced migration response (hyperchemotaxis) transduced by FVIIa/TF” value ([1]; 100 nM FVIIa) did it give?
A: Neither addition of 5 U/ml Hirudin, a specific thrombin inhibitor, had any effect

Q: And the “effect on migration of fibroblasts in response to PDGF without FVIIa” value [1]?
A: did not influence

Q: And the “effect … of Cyr61” value [2]?
A: failed to abolish

Q: “TAP: Recombinant Tick anticoagulant peptide, specifically blocks the active site of FXa (YNRLCIKPRDWIDECDSNEGGERAYFRNGKGGCDSFWICPEDHTGADYYSSYRDCFNACI; UniProt P17726 1-60, looked up)” was tested. Which “effect on enhanced migration response (hyperchemotaxis) transduced by FVIIa/TF” value ([1]; 100 nM FVIIa) did it give?
A: not blocked

Q: What about the “effect on migration of fibroblasts in response to PDGF without FVIIa” value [1] of the same molecule?
A: did not influence

Q: And the “effect … of Cyr61” value [2]?
A: failed to abolish

Q: thrombin was tested. Which “induction of Cyr61 expression (data not shown)” value ([2]; conditions not given) did it give?
A: could also induce the expression of Cyr61

B1: PDGF-BB: platelet-derived growth factor BB, chemotactic factor for human fibroblasts (protein, UniProt P01127 82-190, looked up)
Platelet-derived growth …: SLGSLTIAEPAMIAECKTRTEVFEISRRLIDRTNANFLVWPPCVEVQRCSGCCNNRNVQCRPTQVQLRPVQVRKIEIVRKKPIFKKATVTLEDHLACKCETVAAARPVT
Q: Which “tyrosine phosphorylation of PLC-γ1, agent alone” value [3] does the source give for B1 here?
A: significant increase in tyrosine phosphorylation of PLC-γ1

Q: And the “kinetics of Cyr61 expression upon stimulation” value ([2]; PDGF-BB 10 ng/ml)?
A: expressed only transiently

Q: And the “time to full repression of Cyr61 after addition of stimuli” value ([2]; PDGF-BB 10 ng/ml)?
A: 2 h
